Data reported in US6488933B2, “Preparations for the treatment of T cell mediated diseases” (Yeda Research and Development Co. Ltd., priority 1995, dated 2002).

Experiments:
IDDM = settings: mice, subcutaneously (sc) in an oil vehicle (IFA); cited from earlier work
NOD mice = assay: Antibody isotypes induced by p277(Val^6-Val^11) therapy, isotype ELISA (Example 3); format: in vivo, mouse; settings: NOD mice 3 months old, treated in oil, FIG. 2
Protocol: The sera of individual mice were assayed for the isotypes of their antibodies to p277(Val6-Val^11) after treatment (12-15 mice per group). The antibody isotypes were detected using an ELISA assay with isotype-specific developing antibody reagents (Southern Biotechnology Associates, Birmingham, Ala.). […] The columns in each experiment show results from equal numbers of mice; an apparent reduction in numbers of circles is caused by superimposition.

autoimmune T cells = assay: p277(Val^6-Val^11)-peptide treatment: spontaneous T-cell responses and autoantibodies (summary statement); format: in vivo, mouse; settings: peptide in an appropriate carrier
[1] = tested on: T cells reactive to the p277(Val^6-Val^11); assay: Cytokine profile of spleen cells of treated NOD mice, cytokine ELISA (Example 4); format: in vivo, mouse; settings: spleen cells 5 weeks after treatment
Description: Concanavalin A (ConA), a T-cell mitogen, was used to activate total splenic T-cells as a control.
Five weeks later, the spleens of the mice were removed and the spleen cells were pooled. […] The presence of the cytokines in the culture supernatants was quantitated by ELISA, using Pharmingen paired antibodies according to the Pharmingen cytokine ELISA protocol. Pharmingen recombinant mouse cytokines were used as standards for calibration curves. Briefly, flat-bottom 96-well microtiter plates were coated with rat anti-mouse cytokine mAbs for 18 h at 4° C., and the culture supernatants or recombinant mouse cytokines were added for 18 h at 4° C. The plates were washed, and biotinylated rat anti-mouse cytokine mAbs were added for 45 min at room temperature, then extensively washed, and avidin-alkaline phosphatase was added. The plates were washed, a chromogen substrate (p-nitrophenylphosphate) was added and samples were read at 405 nm in an ELISA reader. The concentrations of cytokines are shown as the OD readings. *P<0.01.

## p12: human hsp60 positions 166-185: EEIAQVATISANGDKEIGNI
IDDM
  Peptide therapy for treatment of IDDM: effective

## p32: human hsp60 positions 466-485: EIIKRTLKIPAMTIAXNAGV (EIIKRTLKIPAMTIAKNAGV)
IDDM
  Peptide therapy for treatment of IDDM: effective

## p277(Val^6-Val^11): SEQ ID NO 4, hsp60 437-460 with C-442 and C-447 changed to V: VLGGGVALLRVIPALDSLTPANED
NOD mice
  TH1-type IgG2a antibodies: no TH1-type IgG2a antibodies induced
  isotypes of the anti-p277 antibodies developing after treatment: exclusively of the IgG1 and IgG2b classes
Autoimmune T cells
  production of autoantibodies to hsp60, to GAD and to insulin: abolished
  spontaneous T-cell proliferative responses to epitopes of both hsp60 and GAD: down-regulated
  spontaneous T-cell response of the treated mice to a bacterial hsp60 peptide: remained in the TH1 mode
[1]; 24 h incubation with Con A, FIG. 3B
  IL-2 cytokine response to ConA: maintained
[1]; 24 h incubation, vs control mice (PBS in Intralipid), P<0.01, FIG. 3A
  IL-2 secretion in response to incubation with peptide p277(Val^6-Val^11): significantly less
[1]; 48 h incubation with Con A, FIG. 3B
  IFNγ cytokine response to ConA: maintained
[1]; 48 h incubation, vs control mice (PBS in Intralipid), P<0.01, FIG. 3A
  IFNγ secretion in response to incubation with peptide p277(Val^6-Val^11): significantly less

## p277: human hsp60 positions 437-460: VLGGGCALLRCIPALDSLTPANED
IDDM
  Peptide therapy for treatment of IDDM: effective
